Laboratory results: patent US12606561B2, “Substituted pyrazolo[1,5-a][1,3,5]triazines as CDK inhibitors” (QURIENT CO., LTD., priority 2018, dated 2026)
Where two headings read alike, the source gives them in different places.

Tests used:
Format in all cases: biochemical
[1] = molecular target: T1, CDK1/Cyclin B (Homo sapiens, UniProt P06493); assay: Enzymatic assay for CDK1 (LANCE Ultra kinase assay, FRET based); settings: ATP at Km; read-out: CDK1 enzymatic activity IC50
T1 construct: purchased Invitrogen PR4768C
In short: (§1)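 Purified CDK7/Cyclin H/MNAT1 or CDK1/Cyclin B complexes were tested for inhibition at Km ATP. Phosphorylation of a ULight-labelled peptide was detected by FRET with a Europium anti-phospho antibody (LANCE Ultra).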

[2] = molecular target: T2, CDK7/Cyclin H/MNAT1 (Homo sapiens, UniProt P50613); assay: Enzymatic assay for CDK7 (LANCE Ultra kinase assay, FRET based)
T2 construct: purchased Invitrogen PR6749B
T2 sequence (P50613 whole entry): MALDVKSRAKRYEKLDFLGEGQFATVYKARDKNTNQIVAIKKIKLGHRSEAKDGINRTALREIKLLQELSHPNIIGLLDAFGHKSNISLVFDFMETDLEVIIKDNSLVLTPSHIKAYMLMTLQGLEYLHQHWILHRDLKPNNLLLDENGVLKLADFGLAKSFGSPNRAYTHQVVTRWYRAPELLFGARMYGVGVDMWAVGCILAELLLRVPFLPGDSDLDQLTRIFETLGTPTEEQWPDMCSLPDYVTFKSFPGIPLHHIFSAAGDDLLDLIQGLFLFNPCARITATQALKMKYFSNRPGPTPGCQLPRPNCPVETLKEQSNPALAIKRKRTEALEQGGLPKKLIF
T2 sequence (P51946 whole entry partner): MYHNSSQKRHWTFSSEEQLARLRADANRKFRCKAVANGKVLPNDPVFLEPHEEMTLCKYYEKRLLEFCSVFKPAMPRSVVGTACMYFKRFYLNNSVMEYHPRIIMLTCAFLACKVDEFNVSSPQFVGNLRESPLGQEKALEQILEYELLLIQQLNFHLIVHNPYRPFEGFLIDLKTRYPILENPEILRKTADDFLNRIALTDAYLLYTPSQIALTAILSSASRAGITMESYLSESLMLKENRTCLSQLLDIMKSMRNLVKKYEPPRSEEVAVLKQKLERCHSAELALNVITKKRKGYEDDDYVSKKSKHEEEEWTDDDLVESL
T2 sequence (P51948 whole entry partner): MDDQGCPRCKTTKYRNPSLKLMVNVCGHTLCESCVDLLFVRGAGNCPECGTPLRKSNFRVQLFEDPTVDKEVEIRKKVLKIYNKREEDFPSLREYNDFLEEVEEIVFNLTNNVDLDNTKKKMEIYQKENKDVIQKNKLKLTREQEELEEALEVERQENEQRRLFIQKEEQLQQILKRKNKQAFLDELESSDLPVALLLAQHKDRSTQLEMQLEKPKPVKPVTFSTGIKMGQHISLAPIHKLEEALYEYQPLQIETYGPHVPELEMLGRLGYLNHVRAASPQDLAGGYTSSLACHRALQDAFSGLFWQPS
In short: as §1

[3] = molecular target: T3, 28 CDKs family protein kinases (Homo sapiens, UniProt P06493); assay: In vitro IC50 profile for CDKs family kinase (33PanQinase Activity Assay, ProQinase); settings: read-out: CDK7 selectivity profile in CDKs family, IC50
T3 construct: purchased ProQinase GmbH; host or cells: Sf9 insect cells or E. coli
Protocol: (§2) The IC50 profile of compound 11 was determined using 28 CDKs family protein kinases through ProQinase GmbH (Freiburg, Germany). All the protocol and materials had been provided by ProQinase GmbH. Briefly, in the process, 90 μl H2O were added to each well of a compound dilution plate. To minimize potential precipitation, the H2O was added to the plate only a few minutes before the transfer of the compound solutions into the assay plates. The plate was shaken thoroughly, resulting in a “compound dilution plate/10% DMSO”. The compound dilution plate(s) were discarded at the end of the working day. For the assays (see below), 5 μl solution from each well of the compound dilution plate were transferred into the assay plates. The final volume of the assay was 50 μl. All compounds were tested at 10 final assay concentrations in the range from 1×10^−05 M to 3×10^−10 M. The final DMSO concentration in the reaction cocktails was 1% in all cases. All protein kinases provided by ProQinase were expressed in Sf9 insect cells or in E. coli as recombinant GST-fusion proteins or His-tagged proteins, either as full-length or enzymatically active fragments. All kinases were produced from human cDNAs and purified by either GSH affinity chromatography or immobilized metal affinity chromatography. The purity of the protein kinases was examined by SDS-PAGE/Coomassie staining, the identity was checked by mass spectroscopy. Kinases from external vendors, Carna Biosciences Inc.; Invitrogen Corp.; and Millipore Corp., were expressed, purified and quality-controlled by virtue of the vendors readings. A radiometric protein kinase assay (33PanQinase® Activity Assay) was used for measuring the kinase activity of the 28 protein kinases. All kinase assays were performed in 96-well FlashPlates™ from PerkinElmer (Boston, MA, USA) in a 50 μl reaction volume. The reaction cocktails were incubated at 30° C. for 60 minutes. The reaction was stopped with 50 μl of 2% (v/v) H3PO4, plates were aspirated and washed two times with 200 μl 0.9% (w/v) NaCl. Incorporation of ^33Pi was determined with a microplate scintillation counter (Microbeta, Wallac). All assays were performed with a BeckmanCoulter/SAGIAN™ Core System. As part of the data evaluation the low control value from a particular plate was subtracted from the high control value as well as from all 80 “compound values” of the corresponding plate. The residual activity (in %) for each well of a particular plate was calculated by using the following formula: Res. Activity (%)=100×[(cpm of compound−low control)/(high control−low control)].

[4] = molecular target: T4, 28 CDKs family protein kinases (Homo sapiens, UniProt P49336); assay: as above; settings: CDK8/CycC; read-out: CDK7 selectivity profile in CDKs family, IC50
T4 construct: purchased ProQinase GmbH; host or cells: Sf9 insect cells or E. coli
T4 sequence (P49336 whole entry): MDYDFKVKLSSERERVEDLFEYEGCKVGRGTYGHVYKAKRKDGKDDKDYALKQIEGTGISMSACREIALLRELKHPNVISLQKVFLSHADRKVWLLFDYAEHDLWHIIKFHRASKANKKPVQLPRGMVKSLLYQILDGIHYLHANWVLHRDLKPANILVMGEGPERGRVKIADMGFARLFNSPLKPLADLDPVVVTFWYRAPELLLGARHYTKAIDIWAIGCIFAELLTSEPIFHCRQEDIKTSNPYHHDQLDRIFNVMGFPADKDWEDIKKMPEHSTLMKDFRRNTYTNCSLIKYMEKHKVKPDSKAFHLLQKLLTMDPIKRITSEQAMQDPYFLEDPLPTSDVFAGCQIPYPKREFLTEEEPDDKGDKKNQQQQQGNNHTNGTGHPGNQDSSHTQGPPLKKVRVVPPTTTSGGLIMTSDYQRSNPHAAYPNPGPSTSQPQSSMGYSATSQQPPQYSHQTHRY
T4 sequence (P24863 whole entry partner): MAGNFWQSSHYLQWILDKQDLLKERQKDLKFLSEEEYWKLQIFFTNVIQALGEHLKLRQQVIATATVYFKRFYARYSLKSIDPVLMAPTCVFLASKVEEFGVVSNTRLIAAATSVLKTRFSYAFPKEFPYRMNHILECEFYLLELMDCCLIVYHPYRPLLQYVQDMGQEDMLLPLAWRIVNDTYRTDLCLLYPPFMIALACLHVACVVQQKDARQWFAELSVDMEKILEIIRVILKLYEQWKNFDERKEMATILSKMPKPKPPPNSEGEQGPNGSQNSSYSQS
Protocol: as §2

[5] = molecular target: T5, 28 CDKs family protein kinases (Homo sapiens, UniProt P50613); assay: as above; settings: CDK7/CycH/MAT1; read-out: CDK7 selectivity profile in CDKs family, IC50
T5 construct: purchased ProQinase GmbH; host or cells: Sf9 insect cells or E. coli
T5 sequence (P50613 whole entry): as the sequence (P50613 whole entry) above
T5 sequence (P51946 whole entry partner): as the sequence (P51946 whole entry partner) above
T5 sequence (P51948 whole entry partner): as the sequence (P51948 whole entry partner) above
Protocol: as §2

[6] = molecular target: T6, 28 CDKs family protein kinases (Homo sapiens, UniProt Q00526); assay: as above; settings: read-out: CDK7 selectivity profile in CDKs family, IC50
T6 construct: purchased ProQinase GmbH; host or cells: Sf9 insect cells or E. coli
Protocol: as §2

[7] = molecular target: T7, 28 CDKs family protein kinases (Homo sapiens, UniProt Q00534); assay: as above; settings: read-out: CDK7 selectivity profile in CDKs family, IC50
T7 construct: purchased ProQinase GmbH; host or cells: Sf9 insect cells or E. coli
Protocol: as §2

[8] = molecular target: T8, 28 CDKs family protein kinases (Homo sapiens, UniProt Q00536); assay: as above; settings: CDK16/CycY; read-out: CDK7 selectivity profile in CDKs family, IC50
T8 construct: purchased ProQinase GmbH; host or cells: Sf9 insect cells or E. coli
T8 sequence (Q00536 whole entry): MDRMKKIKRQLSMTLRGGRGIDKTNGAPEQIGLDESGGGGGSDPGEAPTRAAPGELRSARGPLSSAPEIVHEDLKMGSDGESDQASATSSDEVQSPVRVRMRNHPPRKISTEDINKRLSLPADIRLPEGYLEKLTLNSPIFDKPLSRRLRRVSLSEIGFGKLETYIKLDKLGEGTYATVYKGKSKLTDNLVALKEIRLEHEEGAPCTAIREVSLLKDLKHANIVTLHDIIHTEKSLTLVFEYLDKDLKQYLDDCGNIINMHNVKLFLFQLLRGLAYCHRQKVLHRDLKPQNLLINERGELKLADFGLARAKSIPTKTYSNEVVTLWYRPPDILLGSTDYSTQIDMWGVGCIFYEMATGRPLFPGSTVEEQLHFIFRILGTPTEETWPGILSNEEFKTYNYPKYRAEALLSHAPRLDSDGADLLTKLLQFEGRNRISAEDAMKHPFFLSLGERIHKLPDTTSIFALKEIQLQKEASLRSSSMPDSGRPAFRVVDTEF
T8 sequence (Q8ND76 whole entry partner): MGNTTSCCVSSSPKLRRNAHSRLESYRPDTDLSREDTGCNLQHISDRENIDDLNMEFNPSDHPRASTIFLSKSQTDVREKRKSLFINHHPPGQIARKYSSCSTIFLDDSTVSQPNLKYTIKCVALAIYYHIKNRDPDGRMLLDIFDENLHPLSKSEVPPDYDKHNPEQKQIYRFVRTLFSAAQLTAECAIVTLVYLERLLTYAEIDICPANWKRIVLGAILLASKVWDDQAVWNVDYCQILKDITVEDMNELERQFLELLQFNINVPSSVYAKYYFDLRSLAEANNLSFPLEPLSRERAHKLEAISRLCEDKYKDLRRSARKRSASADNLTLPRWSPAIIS
Protocol: as §2

[9] = molecular target: T9, 28 CDKs family protein kinases (Homo sapiens, UniProt Q00537); assay: as above; settings: CDK17/p35NCK; read-out: CDK7 selectivity profile in CDKs family, IC50
T9 construct: purchased ProQinase GmbH; host or cells: Sf9 insect cells or E. coli
T9 sequence (Q00537 whole entry): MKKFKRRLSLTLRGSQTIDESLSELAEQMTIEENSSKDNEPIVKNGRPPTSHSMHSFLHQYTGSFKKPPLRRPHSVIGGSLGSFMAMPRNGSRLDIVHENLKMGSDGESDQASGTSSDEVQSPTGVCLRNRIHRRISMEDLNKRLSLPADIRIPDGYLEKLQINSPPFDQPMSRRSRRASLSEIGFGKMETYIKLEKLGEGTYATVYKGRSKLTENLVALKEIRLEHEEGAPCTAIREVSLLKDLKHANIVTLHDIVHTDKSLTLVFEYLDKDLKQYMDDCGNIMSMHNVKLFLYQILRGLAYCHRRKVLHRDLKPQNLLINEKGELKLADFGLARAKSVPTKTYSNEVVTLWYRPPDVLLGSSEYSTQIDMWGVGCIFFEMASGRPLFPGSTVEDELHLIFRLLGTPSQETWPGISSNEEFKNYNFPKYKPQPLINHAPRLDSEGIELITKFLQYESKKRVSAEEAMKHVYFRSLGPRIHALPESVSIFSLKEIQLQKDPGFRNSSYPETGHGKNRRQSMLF
T9 sequence (Q15078 whole entry partner): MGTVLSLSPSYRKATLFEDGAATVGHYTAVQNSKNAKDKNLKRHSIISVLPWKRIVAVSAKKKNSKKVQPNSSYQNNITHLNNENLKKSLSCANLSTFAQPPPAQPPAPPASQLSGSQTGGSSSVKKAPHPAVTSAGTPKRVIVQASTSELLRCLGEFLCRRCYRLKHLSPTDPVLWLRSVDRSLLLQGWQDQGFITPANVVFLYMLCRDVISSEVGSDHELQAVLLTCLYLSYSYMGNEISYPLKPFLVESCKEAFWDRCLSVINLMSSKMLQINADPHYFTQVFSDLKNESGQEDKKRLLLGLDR
Protocol: as §2

[10] = molecular target: T10, 28 CDKs family protein kinases (Homo sapiens, UniProt Q07002); assay: as above; settings: CDK18/CycY; read-out: CDK7 selectivity profile in CDKs family, IC50
T10 construct: purchased ProQinase GmbH; host or cells: Sf9 insect cells or E. coli
T10 sequence (Q07002 whole entry): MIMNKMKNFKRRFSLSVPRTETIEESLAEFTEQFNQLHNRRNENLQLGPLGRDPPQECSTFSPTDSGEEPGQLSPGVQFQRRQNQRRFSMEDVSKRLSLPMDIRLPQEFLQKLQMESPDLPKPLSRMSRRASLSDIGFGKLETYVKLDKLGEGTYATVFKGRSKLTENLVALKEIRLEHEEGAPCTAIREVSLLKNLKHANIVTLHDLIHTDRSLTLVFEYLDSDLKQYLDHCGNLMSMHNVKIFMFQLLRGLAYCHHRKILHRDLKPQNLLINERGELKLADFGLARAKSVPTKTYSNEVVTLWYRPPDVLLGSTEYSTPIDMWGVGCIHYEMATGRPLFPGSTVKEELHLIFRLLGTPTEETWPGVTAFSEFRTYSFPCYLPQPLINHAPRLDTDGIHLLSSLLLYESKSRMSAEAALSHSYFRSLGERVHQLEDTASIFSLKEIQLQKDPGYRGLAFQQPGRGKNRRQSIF
T10 sequence (Q8ND76 whole entry partner): as the sequence (Q8ND76 whole entry partner) above
Protocol: as §2

[11] = molecular target: T11, 28 CDKs family protein kinases (Homo sapiens, UniProt Q14004); assay: as above
T11 construct: purchased ProQinase GmbH; host or cells: Sf9 insect cells or E. coli
Protocol: as §2

[12] = molecular target: T12, 28 CDKs family protein kinases (Homo sapiens, UniProt Q8IZL9); assay: as above; settings: read-out: CDK7 selectivity profile in CDKs family, IC50
T12 construct: purchased ProQinase GmbH; host or cells: Sf9 insect cells or E. coli
Protocol: as §2

[13] = molecular target: T13, 28 CDKs family protein kinases (Homo sapiens, UniProt Q9NYV4); assay: as above; settings: CDK12wt/CycK; read-out: CDK7 selectivity profile in CDKs family, IC50
T13 construct: purchased ProQinase GmbH; host or cells: Sf9 insect cells or E. coli
Protocol: as §2

[14] = molecular target: 28 CDKs family protein kinases (Homo sapiens, UniProt Q00535); assay: as above; parameters: purchased ProQinase GmbH; host or cells: Sf9 insect cells or E. coli; settings: CDK5/p35NCK; read-out: CDK7 selectivity profile in CDKs family, IC50
Sequence of 28 CDKs family protein kinases (Homo sapiens, UniProt Q00535) (Q00535 whole entry): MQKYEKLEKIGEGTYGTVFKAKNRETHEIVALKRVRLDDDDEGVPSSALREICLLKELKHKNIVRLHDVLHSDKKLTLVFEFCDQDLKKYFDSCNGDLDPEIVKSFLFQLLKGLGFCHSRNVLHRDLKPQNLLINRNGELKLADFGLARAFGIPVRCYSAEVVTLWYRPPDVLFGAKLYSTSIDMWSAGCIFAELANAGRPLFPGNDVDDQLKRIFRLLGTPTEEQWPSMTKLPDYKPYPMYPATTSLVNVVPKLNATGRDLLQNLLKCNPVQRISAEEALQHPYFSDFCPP
Sequence of 28 CDKs family protein kinases (Homo sapiens, UniProt Q00535) (Q15078 whole entry partner): as the sequence (Q15078 whole entry partner) above
Protocol: The IC50 profile of compound 11 was determined using 28 CDKs family protein kinases through ProQinase GmbH (Freiburg, Germany). All the protocol and materials had been provided by ProQinase GmbH. Briefly, in the process, 90 μl H2O were added to each well of a compound dilution plate. To minimize potential precipitation, the H2O was added to the plate only a few minutes before the transfer of the compound solutions into the assay plates. The plate was shaken thoroughly, resulting in a “compound dilution plate/10% DMSO”. The compound dilution plate(s) were discarded at the end of the working day. For the assays (see below), 5 μl solution from each well of the compound dilution plate were transferred into the assay plates. The final volume of the assay was 50 μl. […] Kinases from external vendors, Carna Biosciences Inc.; Invitrogen Corp.; and Millipore Corp., were expressed, purified and quality-controlled by virtue of the vendors readings. […] Incorporation of ^33Pi was determined with a microplate scintillation counter (Microbeta, Wallac). […] The residual activity (in %) for each well of a particular plate was calculated by using the following formula: Res. Activity (%)=100×[(cpm of compound−low control)/(high control−low control)].

CC(C)c1cnn2c(NCc3ccccc3-c3nccc4cc(NC(=O)/C=C/CN(C)C)ccc34)nc(N3CCC(N)CC3)nc12 [Compound 11]
IC50 [1]: > 1 µM | IC50 ([2]; ATP at Km): < 0.1 µM | CDK1/CDK7: Selectivity of CDK7 inhibition over CDK1 inhibition ([2]; CDK7 over CDK1): A (A indicates [fold] > 500) | CDK2/CDK7: Selectivity of CDK7 inhibition over CDK2 inhibition ([2]; CDK7 over CDK2): A (A indicates [fold] > 500) | CDK5/CDK7: Selectivity of CDK7 inhibition over CDK5 inhibition ([2]; CDK7 over CDK5): A (A indicates [fold] > 500) | IC50 ([3]; CDK1/CycA2): > 10 µM | IC50 ([3]; CDK1/CycB1): > 10 µM | IC50 ([3]; CDK1/CycE1): > 10 µM | IC50 [4]: > 10 µM | IC50 [5]: 0.025 µM | IC50 ([6]; CDK3/CycC): > 10 µM | IC50 ([6]; CDK3/CycE1): > 10 µM | IC50 ([7]; CDK6/CycD1): > 10 µM | IC50 ([7]; CDK6/CycD2): > 10 µM | IC50 ([7]; CDK6/CycD3): > 10 µM | IC50 [8]: > 10 µM | IC50 [9]: > 10 µM | IC50 [10]: > 10 µM | IC50 [11]: > 10 µM | IC50 ([12]; CDK20/CycH): > 10 µM | IC50 ([12]; CDK20/CycT1): > 10 µM | IC50 [13]: > 10 µM | IC50 [14]: 7.86 µM
